Experimental data from publication PMC11425660, “[^186Re]Re- and [^99mTc]Tc-Tricarbonyl Metal Complexes with 1,4,7-Triazacyclononane-Based Chelators Bearing Amide, Alcohol, or Ketone Pendent Groups” (ACS Omega, 2024).

How the values were obtained:
[1] = solubility in solvents (observation); type: physicochemical; settings: solvents as named in the value
[2] = storage stability (observation); type: physicochemical

Row | Compound | solubility [1] | storage stability ([2]; stored at 4 °C) | storage stability ([2]; room temperature)
1 | CC(=O)CN1CCN(CC(C)=O)CCN(CC(=O)NCc2ccccc2)CC1 [Chelator 4, N-Benzyl-2-(4,7-bis(2-oxopropyl)-1,4,7-triazonan-1-yl)acetamide] | soluble in dimethyl sulfoxide | stable at 4 °C for several weeks | –
2 | O=C(CN1CCN(CCO)CCN(CCO)CC1)NCc1ccccc1 [Chelator 3, N-Benzyl-2-(4,7-bis(2-hydroxyethyl)-1,4,7,-triazonan-1-yl)acetamide] | soluble in water, methanol, acetonitrile, and dimethyl sulfoxide | stable when stored at 4 °C for several weeks | –
3 | NC(=O)CN1CCN(CC(N)=O)CCN(CC(=O)NCc2ccccc2)CC1 [Chelator 2, 2,2′-(7-(2-(Benzylamino)-2-oxoethyl)-1,4,7-triazonane-1,4-diyl)diacetamide] | soluble in water, methanol, acetonitrile, and dimethyl sulfoxide | stable when stored at 4 °C for several weeks | –
4 | O=C(O)CN1CCN(CC(=O)O)CCN(CC(=O)NCc2ccccc2)CC1 [Chelator 5, 2,2′-(7-(2-(Benzylamino)-2-oxoethyl)-1,4,7-triazonane-1,4-diyl)diacetic Acid] | soluble in water, methanol, acetonitrile, and dimethyl sulfoxide | – | stable at room temperature for several months
